{"source": "patent US20220264878A1", "about": "“HERBICIDAL COMPOSITION CONTAINING R-TYPE PYRIDYLOXY CARBOXYLIC ACID DERIVATIVE AND USE THEREOF” (Qingdao Kingagroot Chemical Compound Co., Ltd., priority 2019, published 2022)", "assay_type_in_all_cases": "in vivo", "key": {"Veronica didyma": {"test_system": "Veronica didyma", "test": "Post-emergence foliage spray, pot culture, fresh weight inhibition (Tables 151-206; 20 days)", "in_short": "(§1)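 Field-collected weeds grown in pots in a greenhouse (20-30° C., natural light, 57-72% RH), 15 per pot, 3 pots × 4 replicates. Single foliar spray at 4-5 leaves (grasses) or 5-6 leaves (broadleaf) with acetone/0.1% Tween-80 dilutions at 450 kg/ha, 0.3 MPa. Above-ground fresh weight inhibition versus solvent blank at 20 days.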"}, "Solanum nigrum": {"test_system": "Solanum nigrum", "test": "Post-emergence foliage spray, pot culture, fresh weight inhibition (Tables 1-48, 51-98, 101-148; 24 days)", "text": "(§2) Table 1-48, 51-98, 101-148: Echinochloa crusgalli var. zelayensis, Eclipta prostrate, Galium aparine L., Alopecurus aequalis, Alopecurus japonicus, Lindernia procumbens, Veronica persica^1, Malachium aquaticum, Beckmannia syzigachne, Stellaria media were collected in Huai'an of Jiangsu Province; Commelina communis, Sonchus arvensis, Setaria glauca, Chloris virgata, Setaria faberi, Sonchus oleraceus L., Echinochloa oryzoides, Cirsium setosum, Xanthium strumarium were collected in Qiqiha'er of Heilongjiang Province; Sinapis arvensis, Veronica persica^2 were collected in Zhumadian of Henan Province; Ludwigia prostrate, Ammannia arenaria were collected in Zhuji of Zhejiang Province; Amaranthus retrojlexus, Descurainia sophia, Digitaria sanguinalis, Setaria viridis, Conyza Canadensis, Capsella bursa-pastoris, Eleusine indica, Ipomoea purpurea, Abutilon theophrasti, Chenopodium album, Acalypha australis, Solanum nigrum were collected in Qingdao of Shandong Province; Echinochloa caudate were collected in Pingluo of Ningxia Province.\n(§3) The above weeds were cultivated by a pot culture method. […] Full and uniform weed seeds were selected, soaked in warm water at 25° C. for 6 hours, and germinated in a 28° C. biochemical incubator (darkness). The weed seeds that had just germinatedwere evenly placed on the surface of the soil and then covered with 0.5-1 cm soil according to the sizes of seeds.\n(§4) The culture was carried out in a controllable sunlight greenhouse at 20 to 30° C., in natural light, and relative humidity of 57% to 72%.\n(§5) The technical materials were all dissolved in acetone, and diluted with an aqueous solution containing 0.1% emulsifier Tween-80. The dilution is performed as required.\n(§6) A ratio of the active ingredient A to the active ingredient B and amounts thereof in each group depends on the characteristics and toxicity of the two agents, as well as the main application purpose of a corresponding formulation. Based on the pre-tests in this study, the dosage of the active ingredient A and B applied alone and in combination were shown in the tables. Water containing the solvent and emulsifier same with the above groups but free of the agents was used as a blank control.\n(§7) Table 1-48, 51-98, 101-148, 151-206: […] per treatment, that is, a total of 60 weeds were treated in one treatment.\n(§8) Table 1-48, 51-98, 101-148: The agents were used for only once in the experiment. In the stage of weeds with 3˜4 leaves, the weeds were thinned out to maintain 15 weeds per pot and 45 weeds for each treatment, then continued to be cultured to 5˜6 leaves stage of grassy weeds, 6˜7 leaves stage of broadleaf weeds, and treated.\n(§9) The well-cultured weeds were evenly placed on a platform with an area of 0.5 m^2, and a solution of agents was sprayed on the stems and leaves thereof by the 3WP-2000-type walking spray tower at a dosage of 450 kg/ha and at a spray pressure of 0.3 MPa. After all the solution was sprayed, the valve was closed. After 30 seconds, the door of the spray tower was opened, and the nutritional bowl was taken out. Then the valve was opened, and the spray tube was cleaned by spraying 50 ml of water.\n(§10) A pot-culture method was employed. For the cultivation of weeds, please refer to the Section 1.1), and “Pesticide guidelines for laboratory bioactivity tests—herbicides”. As to a method for applying agents, please refer to the section 2.3.2), that is, a foliage treatment was employed. After the treatment, the weeds were routinely cultured in a greenhouse.\n(§11) A method for investigating absolute number was employed, wherein whole seedlings of survival weeds were cut off with a blade along the soil surface, and the fresh weight of the weeds was weighed with an analytical balance. For dead weeds, the fresh weight thereof was zero.\n(§12) Table 1-48, 51-98, 101-148, 207-216: The investigation was performed after 24 days of the treatment for only once."}, "[1]": {"test_system": "Veronica persica^2 (collected in Zhumadian of Henan Province)", "test": "Post-emergence foliage spray, pot culture, fresh weight inhibition (Tables 1-48, 51-98, 101-148; 24 days)", "conditions": "Table 88", "text": "as §2, §3, §4, §5, §6, §7, §8, §9, §10, §11, §12"}, "Conyza Canadensis": {"test_system": "Conyza Canadensis", "test": "Post-emergence foliage spray, pot culture, fresh weight inhibition (Tables 151-206; 20 days)", "in_short": "as §1"}, "Chloris virgata": {"test_system": "Chloris virgata", "test": "Post-emergence foliage spray, pot culture, fresh weight inhibition (Tables 1-48, 51-98, 101-148; 24 days)", "text": "as §2, §3, §4, §5, §6, §7, §8, §9, §10, §11, §12"}, "Eleusine indica": {"test_system": "Eleusine indica", "test": "Post-emergence foliage spray, pot culture, fresh weight inhibition (Tables 1-48, 51-98, 101-148; 24 days)", "conditions": "Table 83", "text": "as §2, §3, §4, §5, §6, §7, §8, §9, §10, §11, §12"}, "[2]": {"conditions": "B alone 75 g a.i./ha, 20 days after treatment"}, "[3]": {"conditions": "B alone 150 g a.i./ha, 20 days after treatment"}, "[4]": {"conditions": "B alone 300 g a.i./ha, 20 days after treatment"}, "[5]": {"conditions": "B alone 600 g a.i./ha, 20 days after treatment"}}, "data": [{"smiles": "c1cc[n+]2c(c1)-c1cccc[n+]1CC2", "note": "[diquat Dibromide monohydrate]", "values": [{"measurement": "Control effect (%) of B applied alone in corresponding dose", "setting": "Veronica didyma; B 75 g a.i./ha, 20 days", "result": 5.5, "unit": "%"}, {"measurement": "Control effect (%) of B applied alone in corresponding dose", "setting": "Veronica didyma; B 150 g a.i./ha, 20 days", "result": 12.6, "unit": "%"}, {"measurement": "Control effect (%) of B applied alone in corresponding dose", "setting": "Veronica didyma; B 300 g a.i./ha, 20 days", "result": 41.3, "unit": "%"}, {"measurement": "Control effect (%) of B applied alone in corresponding dose", "setting": "Veronica didyma; B 600 g a.i./ha, 20 days", "result": 80.4, "unit": "%"}, {"measurement": "Control effect (%) of B applied alone in corresponding dose", "setting": "Veronica didyma; [2]", "result": 5.5, "unit": "%"}, {"measurement": "Control effect (%) of B applied alone in corresponding dose", "setting": "Veronica didyma; [3]", "result": 12.6, "unit": "%"}, {"measurement": "Control effect (%) of B applied alone in corresponding dose", "setting": "Veronica didyma; [4]", "result": 41.3, "unit": "%"}, {"measurement": "Control effect (%) of B applied alone in corresponding dose", "setting": "Veronica didyma; [5]", "result": 80.4, "unit": "%"}]}, {"smiles": "O=C1C(Cl)C(CCl)CN1c1cccc(C(F)(F)F)c1", "note": "(centres unmarked) [flurochloridone]", "values": [{"measurement": "Control effect (%) of B applied alone in corresponding dose", "setting": "Solanum nigrum; B 75 g a.i./ha", "result": 5.5, "unit": "%"}, {"measurement": "Control effect (%) of B applied alone in corresponding dose", "setting": "Solanum nigrum; B 150 g a.i./ha", "result": 13.7, "unit": "%"}, {"measurement": "Control effect (%) of B applied alone in corresponding dose", "setting": "Solanum nigrum; B 300 g a.i./ha", "result": 45.8, "unit": "%"}, {"measurement": "Control effect (%) of B applied alone in corresponding dose", "setting": "Solanum nigrum; B 600 g a.i./ha", "result": 79.7, "unit": "%"}, {"measurement": "Control effect (%) of B applied alone in corresponding dose", "setting": "[1]; 75 g a.i./ha", "result": 2.1, "unit": "%"}, {"measurement": "Control effect (%) of B applied alone in corresponding dose", "setting": "[1]; 150 g a.i./ha", "result": 12.3, "unit": "%"}, {"measurement": "Control effect (%) of B applied alone in corresponding dose", "setting": "[1]; 300 g a.i./ha", "result": 44.5, "unit": "%"}, {"measurement": "Control effect (%) of B applied alone in corresponding dose", "setting": "[1]; 600 g a.i./ha", "result": 79.6, "unit": "%"}]}, {"smiles": "C[n+]1ccc(-c2cc[n+](C)cc2)cc1", "note": "[paraquat dichloride]", "values": [{"measurement": "Control effect (%) of B applied alone in corresponding dose", "setting": "Conyza Canadensis; B 75 g a.i./ha, 20 days", "result": 3.2, "unit": "%"}, {"measurement": "Control effect (%) of B applied alone in corresponding dose", "setting": "Conyza Canadensis; B 150 g a.i./ha, 20 days", "result": 17.2, "unit": "%"}, {"measurement": "Control effect (%) of B applied alone in corresponding dose", "setting": "Conyza Canadensis; B 300 g a.i./ha, 20 days", "result": 47.9, "unit": "%"}, {"measurement": "Control effect (%) of B applied alone in corresponding dose", "setting": "Conyza Canadensis; B 600 g a.i./ha, 20 days", "result": 75.2, "unit": "%"}, {"measurement": "Control effect (%) of B applied alone in corresponding dose", "setting": "Conyza Canadensis; [2]", "result": 3.2, "unit": "%"}, {"measurement": "Control effect (%) of B applied alone in corresponding dose", "setting": "Conyza Canadensis; [3]", "result": 17.2, "unit": "%"}, {"measurement": "Control effect (%) of B applied alone in corresponding dose", "setting": "Conyza Canadensis; [4]", "result": 47.9, "unit": "%"}, {"measurement": "Control effect (%) of B applied alone in corresponding dose", "setting": "Conyza Canadensis; [5]", "result": 75.2, "unit": "%"}]}, {"smiles": "CS(=O)(=O)c1ccc(C(=O)C2C(=O)CCCC2=O)c(Cl)c1COCC(F)(F)F", "note": "[tembotrione]", "values": [{"measurement": "Control effect (%) of B applied alone in corresponding dose", "setting": "Chloris virgata; B 3.75 g a.i./ha", "result": 4.0, "unit": "%"}, {"measurement": "Control effect (%) of B applied alone in corresponding dose", "setting": "Chloris virgata; B 7.5 g a.i./ha", "result": 12.3, "unit": "%"}, {"measurement": "Control effect (%) of B applied alone in corresponding dose", "setting": "Chloris virgata; B 15 g a.i./ha", "result": 41.0, "unit": "%"}, {"measurement": "Control effect (%) of B applied alone in corresponding dose", "setting": "Chloris virgata; B 30 g a.i./ha", "result": 73.4, "unit": "%"}, {"measurement": "Control effect (%) of B applied alone in corresponding dose", "setting": "Eleusine indica; 3.75 g a.i./ha", "result": 5.4, "unit": "%"}, {"measurement": "Control effect (%) of B applied alone in corresponding dose", "setting": "Eleusine indica; 7.5 g a.i./ha", "result": 12.3, "unit": "%"}, {"measurement": "Control effect (%) of B applied alone in corresponding dose", "setting": "Eleusine indica; 15 g a.i./ha", "result": 39.7, "unit": "%"}, {"measurement": "Control effect (%) of B applied alone in corresponding dose", "setting": "Eleusine indica; 30 g a.i./ha", "result": 73.1, "unit": "%"}]}]}
